From patent US20120202806A1, “Novel Pyrimidine- And Triazine-Hepcidine Antagonists” (VIFOR (INTERNATIONAL) AG, priority 2009, published 2012)

The compounds below were run against T1, human ferroportin (Fpn) (Homo sapiens, UniProt Q9NP59) (assay: Ferroportin internalisation assay (inhibition of hepcidin-induced internalisation of Fpn in MDCK-FPN-HaloTag cells)). Settings: 100 nM hepcidin, overnight incubation, 11 concentrations 0.04 to 40 μM.
T1 construct: expressed in transfected cells
T1 sequence (Q9NP59 1-571): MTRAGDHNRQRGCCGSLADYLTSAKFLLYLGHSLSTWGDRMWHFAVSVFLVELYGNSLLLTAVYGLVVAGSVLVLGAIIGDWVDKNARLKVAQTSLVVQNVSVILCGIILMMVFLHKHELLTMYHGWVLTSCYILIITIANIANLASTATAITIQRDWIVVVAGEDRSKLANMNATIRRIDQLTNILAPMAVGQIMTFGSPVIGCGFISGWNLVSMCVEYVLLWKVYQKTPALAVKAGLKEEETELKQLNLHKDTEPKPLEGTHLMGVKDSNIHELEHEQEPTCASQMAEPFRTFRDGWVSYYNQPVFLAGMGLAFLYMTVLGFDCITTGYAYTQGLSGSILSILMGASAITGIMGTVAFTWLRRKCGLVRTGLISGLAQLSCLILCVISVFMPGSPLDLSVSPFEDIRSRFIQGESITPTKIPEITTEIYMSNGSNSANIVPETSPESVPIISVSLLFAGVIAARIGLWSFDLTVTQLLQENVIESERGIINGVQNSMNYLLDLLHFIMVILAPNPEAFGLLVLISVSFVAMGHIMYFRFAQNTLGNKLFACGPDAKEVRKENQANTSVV
Type: cell-based
Method: The antagonistic effect against hepcidin of the pyrimidine and triazine compounds of the present invention was determined by means of the ferroportin internalisation assay described below.
Low molecular weight organic compounds which counteract the biological effects of hepcidin on its receptor, the iron exporter ferroportin (Fpn) were identified on the basis of their ability to inhibit hepcidin-induced internalisation of Fpn in living cells. A stable cell line (Madin-Darby Canine Kidney, MDCK) was produced for this purpose to express constitutively human ferroportin which is fused recombinantly with a fluorescent reporter protein (HaloTag®, Promega Corp.) at its C terminus. The internalisation of Fpn was monitored by marking these cells with fluorescent ligands (HaloTag® TMR, tetramethylrhodamine) which attach themselves covalently to the HaloTag reporter gene fused with the Fpn. […] Optimised image analysis algorithms were used to detect the cell surface and to quantify the corresponding membrane fluorescence associated with the Fpn-HaloTag fusion protein.

First: COc1cnc(-c2ccccn2)nc1N(C)Cc1ccccc1 [Example 24, Benzyl-(5-methoxy-2-pyridin-2-yl-pyrimidin-4-yl)-methyl-amine]
Second: COc1cnc(CN)nc1NC(C)C [Example 50, (2-Aminomethyl-5-methoxy-pyrimidin-4-yl)-isopropyl-amine]
The IC50 of the first is higher: > 50 µM for the first, < 50 µM for the second.

Same assay, conditions: 10 μM substance, 100 nM hepcidin, inhibition of Fpn internalisation, read-out: I [%] (Median Inhibition [%] at 10 μM substance conc.)

Nc1nc(-c2ccccn2)nc(N)c1Cc1ccccc1F [Example 3, 5-(2-Fluoro-benzyl)-2-pyridin-2-yl-pyrimidine-4,6-diamine] and Cc1nc(-c2ccccn2)nc(NCCNc2ccc(C(F)(F)F)cn2)c1Cl [Example 4, N-(5-Chloro-6-methyl-2-pyridin-2-yl-pyrimidin-4-yl)-N′-(5-trifluoromethyl-pyridin-2-yl)-ethane-1,2-diamine] cannot be ordered by inhibition at 10 µM: < 50% for the first, < 50% for the second.

COc1ccc(O)c(/C=N/Nc2nc(N3CCOCC3)nc(N3CCOCC3)n2)c1 [Example 9, 2-[(4,6-Dimorpholin-4-yl-[1,3,5]triazin-2-yl)-hydrazonomethyl]-4-methoxy-phenol] and Oc1ccccc1/C=N/Nc1cc(N2CCOCC2)nc(N2CCOCC2)n1 [Example 7, 2-[(2,6-Dimorpholin-4-yl-pyrimidin-4-yl)-hydrazonomethyl]-phenol] cannot be ordered by inhibition at 10 µM: > 50% for the first, > 50% for the second.

First: CN(c1ccccc1)c1nc(N2CCOCC2)nc(-n2ccnc2)n1 [Example 11, (4-Imidazol-1-yl-6-morpholin-4-yl-[1,3,5]triazin-2-yl)-methyl-phenyl-amine]
Second: c1ccc(N(c2ccccc2)c2nc(N3CCOCC3)nc(-n3ccnc3)n2)cc1 [Example 10, (4-Imidazol-1-yl-6-morpholin-4-yl-[1,3,5]triazin-2-yl)-diphenyl-amine]
The inhibition at 10 µM of the first is lower: < 50% for the first, > 50% for the second.

Oc1cccc(/C=N/Nc2cc(N3CCOCC3)nc(N3CCOCC3)n2)c1 [Example 5, 3-[(2,6-Dimorpholin-4-yl-pyrimidin-4-yl)-hydrazonomethyl]-phenol] and Cc1nc(N/N=C/c2ccc(O)cc2O)cc(N2CCOCC2)n1 [Example 6, 4-[(2-Methyl-6-morpholin-4-yl-pyrimidin-4-yl)-hydrazonomethyl]-benzene-1,3-diol] cannot be ordered by inhibition at 10 µM: > 50% for the first, > 50% for the second.

Compared with COc1cnc(-c2ccccn2)nc1NC(C)C [Example 1, Isopropyl-(5-methoxy-2-pyridin-2-yl-pyrimidin-4-yl)-amine], Cc1nc(-c2ccccn2)nc(NCCNc2cc(C(F)(F)F)ccn2)c1Cl [Example 2, N-(5-Chloro-6-methyl-2-pyridin-2-yl-pyrimidin-4-yl)-N′-(4-trifluoromethyl-pyridin-2-yl)-ethane-1,2-diamine] is lower in inhibition at 10 µM: > 50% for the first, < 50% for the second.

Cc1ccc2cc(Nc3nc(N4CCOCC4)nc(N4CCOCC4)n3)ccc2n1 [Example 12, (4,6-Dimorpholin-4-yl-[1,3,5]triazin-2-yl)-(2-methyl-quinolin-6-yl)-amine] and C/C(=N\Nc1cc(N2CCOCC2)nc(C)n1)c1ccc(F)cc1 [Example 8, N-[1-(4-Fluoro-phenyl)-ethylidene]-N′-(2-methyl-6-morpholin-4-yl-pyrimidin-4-yl)-hydrazine] cannot be ordered by inhibition at 10 µM: < 50% for the first, < 50% for the second.
